# Assay results published in paper PMC5379148, “A phase I study of intravenous and oral rucaparib in combination with chemotherapy in patients with advanced solid tumours” (British Journal of Cancer, 2017).
# Where two headings read alike, the source gives them in different places.
# Columns and labels:
# advanced solid tumours = assay: Investigator-assessed tumour response (RECIST version 1.1); assay type: in vivo, human
# Method: Antitumour activity was assessed by the investigators according to Response Evaluation Criteria in Solid Tumor version 1.1 (RECIST) ([Eisenhauer et al, 2009]) through radiological tumour assessments performed every two cycles and/or at the end of treatment, whichever occurred first.
# [1] = in vivo
# Method: (§1) On cycle 1 days −10, −5, 1, and 14, plasma samples were obtained from all patients before rucaparib dosing and at 15 and 30 min, and at 1, 1.5, 2.5, 4, 6, 10, and 24 h after the start of the rucaparib administration (i.v. infusion (day −10) or oral (days −5, 1, and 14)). On cycle 1 days −10 and −5, samples were also obtained 48 h after the start of rucaparib administration. Rucaparib concentration was determined using liquid chromatography with tandem mass spectrometry.
# (§2) Plasma clearance or apparent plasma clearance and steady-state volume of distribution were calculated for rucaparib. The oral bioavailability of rucaparib was calculated as the ratio of dose-normalised AUC0–t or AUCinf (data permitting) determined using oral rucaparib PK data collected on cycle 1 day −5 to that determined using the i.v. PK data collected on cycle 1 day −10. Pharmacokinetic parameters were summarised with the geometric mean and the coefficient of variation (CV). The ratio of Cmax and AUC0–24 of rucaparib administered in combination with chemotherapies to those of rucaparib alone was calculated and summarised, with mean and CV% to evaluate the effect of chemotherapies on the PK of rucaparib for both the i.v. dose (day −10) and oral dose (day −5).
# (§3) The oral bioavailability of rucaparib was calculated as the ratio of dose-normalised AUC0-t or AUCinf (data permitting) determined using oral rucaparib PK data collected on cycle 1 day –5 to that determined using the intravenous PK data collected on cycle 1 day –10. The tmax was summarised with medians and ranges. The accumulation ratio after multiple oral rucaparib dosing (once daily) was assessed as the ratio of the AUC0-24 determined using PK collected on cycle 1 day 14 to the AUC0-24 after the cycle 1 day –5 lead-in dose. The ratio of the Cmax on day 14 to the Cmax on day –5 was also calculated. Additionally, the ratio of the AUC0-24 on cycle 1 day 14 to the AUCinf after the cycle 1 day –5 lead-in dose was calculated as an indication for any time-dependent change in rucaparib PK.
# [2] = system: advanced ovarian or breast cancer associated with a germline BRCA1/2 mutation; parameters: method as in Drew et al, 2016; conditions: single agent, ref Drew et al, 2016, cited from earlier work
# clinical = conditions: human, in vivo; for half-life: t1/2
# Method: as §1, §2, §3
# [3] = system: patients with advanced solid tumours; conditions: single-agent oral rucaparib; ref Kristeleit et al, 2014; cited from earlier work
# [4] = Plasma pharmacokinetics of rucaparib (LC-MS/MS, noncompartmental); conditions: for Vd / AUC(0-t) / AUC(0-inf) / Cmax / Tmax: human, plasma, iv; for AUC(0-t) / AUC(0-inf) / Cmax / Tmax: day –10; for AUC(0-t) / AUC(0-inf) / Cmax: geometric mean (CV%); for AUC(0-inf): AUCinf; for Tmax: median (minimum, maximum)
# Method: as §1, §2, §3
# [5] = investigator-assessed, RECIST 1.1, All patients (N=85), all arms
smiles,measurement,setting,value
CNCc1ccc(-c2[nH]c3cc(F)cc4c3c2CCNC4=O)cc1 [rucaparib],"disease control rate (CR, PR, or SD for ⩾12 weeks)","advanced solid tumours; across all cohorts, among patients with available data (77 of 85)",68.8%
same,partial responses that were confirmed,"advanced solid tumours; across all cohorts, of 9 patients with PR",7 patients
same,Best response: Complete response,advanced solid tumours; [5],1 (1.2) n (%)
same,Best response: Partial response,advanced solid tumours; [5],9 (10.6) n (%)
same,Best response: Progressive disease,advanced solid tumours; [5],24 (28.2) n (%)
same,Best response: Stable disease,advanced solid tumours; [5],43 (50.6) n (%)
same,change in t1/2 at steady state compared with a single dose,[1]; human,no change
same,"Ratio of rucaparib AUC0–24, day 1/day −10","[1]; human, iv, 24 mg",1.02 (15)
same,"Ratio of rucaparib Cmax, day 1/day −10","[1]; human, iv, 24 mg",1.03 (16)
same,average increase of steady-state AUC0–24 compared with a single dose,"[1]; human, po",61%
same,CL/F,"[1]; human, po, 12 mg",53.4 (39.7) L h^–1
same,CL/F,"[1]; human, po, 36 mg",32.7 (41.9) L h^–1
same,CL/F,"[1]; human, po, 48 mg",52.1 (150) L h^–1
same,CL/F,"[1]; human, po, 72 mg",65.9 (49.4) L h^–1
same,"AR, accumulation ratio [AUC0-24, Day 14/AUC0-24, Day -5]","[1]; human, po, 80 mg",1.19 (-)
same,"ARcm, accumulation ratio of Cmax on day 14 to Cmax on day –5","[1]; human, po, 80 mg",1.50 (-)
same,AUC ratio [time-dependent linearity],"[1]; human, po, 80 mg",0.655 (-)
same,"AR, accumulation ratio [AUC0-24, Day 14/AUC0-24, Day -5]","[1]; human, po, 120 mg",1.49 (104)
same,"ARcm, accumulation ratio of Cmax on day 14 to Cmax on day –5","[1]; human, po, 120 mg",1.41 (99.8)
same,AUC ratio [time-dependent linearity],"[1]; human, po, 120 mg",1.14 (101)
same,"AR, accumulation ratio [AUC0-24, Day 14/AUC0-24, Day -5]","[1]; human, po, 180 mg",1.36 (8.48)
same,"ARcm, accumulation ratio of Cmax on day 14 to Cmax on day –5","[1]; human, po, 180 mg",1.11 (31.1)
same,AUC ratio [time-dependent linearity],"[1]; human, po, 180 mg",0.785 (13.3)
same,CL/F,"[1]; human, po, 180 mg",21.4 (68.6) L h^–1
same,"AR, accumulation ratio [AUC0-24, Day 14/AUC0-24, Day -5]","[1]; human, po, 240 mg",1.64 (28.2)
same,"ARcm, accumulation ratio of Cmax on day 14 to Cmax on day –5","[1]; human, po, 240 mg",1.30 (29.7)
same,AUC ratio [time-dependent linearity],"[1]; human, po, 240 mg",1.01 (31.6)
same,"AR, accumulation ratio [AUC0-24, Day 14/AUC0-24, Day -5]","[1]; human, po, 360 mg",1.7 (46.3)
same,"ARcm, accumulation ratio of Cmax on day 14 to Cmax on day –5","[1]; human, po, 360 mg",1.29 (46.1)
same,AUC ratio [time-dependent linearity],"[1]; human, po, 360 mg",1.06 (53.1)
same,dose dependence of exposure,[1],increased approximately dose proportionally
same,effect of carboplatin coadministration on rucaparib oral PK,[1]; po,not affected
same,response rate,[2]; continuous oral dosing,18%
same,response rate,[2]; intermittent intravenous (i.v.) dosing,2%
same,clearance,"clinical; iv, 12 mg",270 mL/min
same,half-life,"clinical; iv, 12 mg",18.7 h
same,clearance,"clinical; iv, 18 mg",307 mL/min
same,half-life,"clinical; iv, 18 mg",16.4 h
same,clearance,"clinical; iv, 24 mg",233 mL/min
same,half-life,"clinical; iv, 24 mg",20.7 h
same,clearance,"clinical; iv, 27 mg",237 mL/min
same,half-life,"clinical; iv, 27 mg",16.8 h
same,clearance,"clinical; iv, 40 mg",232 mL/min
same,half-life,"clinical; iv, 40 mg",11.9 h
same,half-life,"clinical; po, 12 mg",18.6 h
same,half-life,"clinical; po, 36 mg",18 h
same,half-life,"clinical; po, 48 mg",20.3 h
same,half-life,"clinical; po, 72 mg",25.1 h
same,half-life,"clinical; po, 80 mg",20.1 h
same,half-life,"clinical; po, 120 mg",13.3 h
same,half-life,"clinical; po, 180 mg",19.2 h
same,half-life,"clinical; po, 240 mg",17.7 h
same,half-life,"clinical; po, 360 mg",18.2 h
same,half-life,clinical,~17 h
same,recommended phase II dose,[3],600 mg twice daily
same,impact of chemotherapy coadministration on i.v. rucaparib PK,"[4]; carboplatin+paclitaxel, cisplatin+pemetrexed, or epirubicin+cyclophosphamide",No apparent impact
same,Vd,[4]; 12 mg,258 L
same,AUC(0-t),"[4]; 12 mg, AUC0-24, single i.v. dose 12 mg",549 ng·h/mL
same,AUC(0-inf),"[4]; 12 mg, single i.v. dose 12 mg",740 ng·h/mL
same,Cmax,"[4]; 12 mg, single i.v. dose 12 mg",324 ng/mL
same,Tmax,"[4]; 12 mg, single i.v. dose 12 mg",0.5 h
same,Vd,[4]; 18 mg,234 L
same,AUC(0-t),"[4]; 18 mg, AUC0-24, single i.v. dose 18 mg",812 ng·h/mL
same,AUC(0-inf),"[4]; 18 mg, single i.v. dose 18 mg",976 ng·h/mL
same,Cmax,"[4]; 18 mg, single i.v. dose 18 mg",498 ng/mL
same,Tmax,"[4]; 18 mg, single i.v. dose 18 mg",0.5 h
same,Vd,[4]; 24 mg,262 L
same,AUC(0-t),"[4]; 24 mg, AUC0-24, single i.v. dose 24 mg",1220 ng·h/mL
same,AUC(0-inf),"[4]; 24 mg, single i.v. dose 24 mg",1710 ng·h/mL
same,Cmax,"[4]; 24 mg, single i.v. dose 24 mg",627 ng/mL
same,Tmax,"[4]; 24 mg, single i.v. dose 24 mg",0.5 h
same,Vd,[4]; 27 mg,191 L
same,AUC(0-t),"[4]; 27 mg, AUC0-24, single i.v. dose 27 mg",1450 ng·h/mL
same,AUC(0-inf),"[4]; 27 mg, single i.v. dose 27 mg",1900 ng·h/mL
same,Cmax,"[4]; 27 mg, single i.v. dose 27 mg",866 ng/mL
same,Tmax,"[4]; 27 mg, single i.v. dose 27 mg",0.38 h
same,Vd,[4]; 40 mg,113 L
same,AUC(0-t),"[4]; 40 mg, AUC0-24, single i.v. dose 40 mg",2530 ng·h/mL
same,AUC(0-inf),"[4]; 40 mg, single i.v. dose 40 mg",2880 ng·h/mL
